Source: PubChem BioAssay AID1963979 (Molecular Pharmacology Branch, DTP, NCI, 2024)

Test system: 361931-004-R-J1-PDC multicell spheroid viability
Assay: Anticancer human tumor 361931-004-R-J1-PDC patient-derived colon adenocarcinoma cell line growth inhibition [PI3K]
Conditions: for IC50: curve of first compound; for viability, T/C: stronger effect = lower value
Method in brief: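 Tumor cells were combined with HUVEC and MSCs into spheroids, then dosed with PI3K-inhibitor combinations over half-log ranges capped near clinical Cmax or 10 microM.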
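Further: spheroids exposed to agents for seven days before readout.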

C#Cc1c(F)ccc2cc(O)cc(-c3ncc4c(N5CC6CCC(C5)N6)nc(OCC56CCCN5CC(F)C6)nc4c3F)c12 (configuration not stated) + CC(Nc1ccc2c(c1)OCCn1cc(N3C(=O)OCC3C(F)F)nc1-2)C(N)=O
IC50 (second compound 0.00316 µM): > 10 µM | IC50 (second compound 0.01 µM): > 10 µM | IC50 (second compound 0.0316 µM): > 10 µM | IC50 (second compound 0.1 µM): > 10 µM | IC50 (second compound 0.316 µM): > 10 µM | IC50 (second compound 1 µM): 1.76 µM | viability, T/C (second compound 0.00316 µM, first compound 0.0316 µM): 99.7% | viability, T/C (second compound 0.00316 µM, first compound 0.1 µM): 108% | viability, T/C (second compound 0.00316 µM, first compound 0.316 µM): 93.5% | viability, T/C (second compound 0.00316 µM, first compound 1 µM): 100% | viability, T/C (second compound 0.00316 µM, first compound 3.16 µM): 89.6% | viability, T/C (second compound 0.00316 µM, first compound 10 µM): 62.3% | viability, T/C (second compound 0.01 µM, first compound 0.0316 µM): 101% | viability, T/C (second compound 0.01 µM, first compound 0.1 µM): 104% | viability, T/C (second compound 0.01 µM, first compound 0.316 µM): 81% | viability, T/C (second compound 0.01 µM, first compound 1 µM): 92.1% | viability, T/C (second compound 0.01 µM, first compound 3.16 µM): 75.3% | viability, T/C (second compound 0.01 µM, first compound 10 µM): 71.3% | viability, T/C (second compound 0.0316 µM, first compound 0.0316 µM): 101% | viability, T/C (second compound 0.0316 µM, first compound 0.1 µM): 100% | viability, T/C (second compound 0.0316 µM, first compound 0.316 µM): 106% | viability, T/C (second compound 0.0316 µM, first compound 1 µM): 81.3% | viability, T/C (second compound 0.0316 µM, first compound 3.16 µM): 84.3% | viability, T/C (second compound 0.0316 µM, first compound 10 µM): 55.9% | viability, T/C (second compound 0.1 µM, first compound 0.0316 µM): 93.8% | viability, T/C (second compound 0.1 µM, first compound 0.1 µM): 94.2% | viability, T/C (second compound 0.1 µM, first compound 0.316 µM): 76% | viability, T/C (second compound 0.1 µM, first compound 1 µM): 75% | viability, T/C (second compound 0.1 µM, first compound 3.16 µM): 68.5% | viability, T/C (second compound 0.1 µM, first compound 10 µM): 53.4% | viability, T/C (second compound 0.316 µM, first compound 0.0316 µM): 86.6% | viability, T/C (second compound 0.316 µM, first compound 0.1 µM): 86% | viability, T/C (second compound 0.316 µM, first compound 0.316 µM): 68.2% | viability, T/C (second compound 0.316 µM, first compound 1 µM): 55.2% | viability, T/C (second compound 0.316 µM, first compound 3.16 µM): 57.1% | viability, T/C (second compound 0.316 µM, first compound 10 µM): 50% | viability, T/C (second compound 1 µM, first compound 0.0316 µM): 78.7% | viability, T/C (second compound 1 µM, first compound 0.1 µM): 71.2% | viability, T/C (second compound 1 µM, first compound 0.316 µM): 64.6% | viability, T/C (second compound 1 µM, first compound 1 µM): 53.4% | viability, T/C (second compound 1 µM, first compound 3.16 µM): 46.2% | viability, T/C (second compound 1 µM, first compound 10 µM): 35.1%
